Article PMC8071248, “Characterization of Dog Glutathione Transferase P1-1, an Enzyme Relevant to Veterinary Medicine” (International Journal of Molecular Sciences, 2021)

How the values were obtained:
dog GST P1-1 [1] = biological target: T1, dog GST P1-1 (Canis lupus familiaris, UniProt A0A8I3QRM6); assay type: biochemical; settings: compound as substrate with GSH; 30 °C; substrate-specific concentrations and pH
Method: The purified dog GST P1-1 enzyme was assayed spectrophotometrically with various substrates representing different types of chemical reactions, including substitution, reduction, addition, and isomerization.
Activity measurements with alternative substrates were performed spectrophotometrically on a Shimadzu (UV-250 1 PC) instrument. All measurements were conducted at 30 °C and in a 1 mL quartz cuvette, except for the alkenals, which were measured in a 0.5 mL quartz cuvette with a 5 mm light path. The conditions used with the final concentrations in the cuvette were as follows. CDNB: (Δε340 nm = 9600 cm^−1 M^−1), 1 mM GSH, 1 mM CDNB (dissolved in ethanol), measured at pH 6.5 in buffer A (0.1 M NaH2PO4/Na2HPO4 with 1 mM EDTA); CuOOH: (Δε340 nm = −6200 cm^−1 M^−1), 1 mM GSH, 1.5 mM CuOOH (dissolved in acetonitrile), 0.1 mM NADPH, 0.3 units glutathione reductase, measured at pH 7.0 in buffer A; Alkenals: (Δε225 nm = −19,200 cm^−1 M^−1), 0.5 mM GSH, 0.1 mM alkenals (dissolved in acetonitrile), measured at pH 6.5 in buffer A; EA: (Δε270 nm = 5000 cm^−1 M^−1), 0.25 mM GSH, 0.2 mM EA (dissolved in acetonitrile), measured at pH 6.5 in buffer A; AD: (Δε248 nm = 16,300 cm^−1 M^−1), 1 mM GSH, 0.1 mM AD (dissolved in methanol), measured at pH 8.0 in 0.025 M NaH2PO4/Na2HPO4 with 1 mM EDTA; PEITC: (Δε274 nm = 8890 cm^−1 M^−1), BITC: (Δε274 nm = 9250 cm^−1 M^−1), AITC: (Δε274 nm = 7450 cm^−1 M^−1), PITC: (Δε274 nm = 8350 cm^−1 M^−1), cHITC (Δε274 nm = 8520 cm^−1 M^−1), 1 mM GSH, 0.4 mM ITC (dissolved in acetonitrile), measured at pH 6.5 in buffer A.

Human GST P1-1/Ile105 = system: Human GST P1-1/Ile105; parameters: method as in PMID 9600848; settings: compound as substrate; cited from earlier work
dog GST P1-1 [2] = biological target: T1, dog GST P1-1; test: biochemical; assay type: biochemical; settings: for IC50: 1 mM GSH and 0.4 mM benzyl isothiocyanate as substrates, standard assay conditions
dog GST P1-1 [3] = biological target: T1, dog GST P1-1; test: Activation of the prodrug Telcyta by GST P1-1, TLC assay with ninhydrin staining; assay type: biochemical; settings: 3 mM Telcyta, 0.25 mg/mL enzyme, pH 7.5, 37 °C, nonenzymatic background subtracted
Method: The prodrug Telcyta is a substrate for GSTs in a reaction releasing a multifunctional phosphorodiamidate mustard (Figure 5). The prodrug was most effectively activated by human GST P1-1 from the enzymes examined. Telcyta was tested with the dog GST P1-1 for comparison. We developed a chromatographic method to assay the reaction. Aliquots of the reaction mixture were analyzed by thin-layer chromatography (TLC), and the ninhydrin-reactive product as well as the substrate were quantified at different time points (Figure 6). Conditions were chosen to ascertain a linear response of ninhydrin staining with increasing analyte concentration. The enzymatic activity was obtained by subtracting the nonenzymatic background reaction.
Telcyta is a tripeptide derivative, which releases an alkylating agent by the action of GSTs and is converted to another tripeptide. Both substrate and product peptides are reactive with ninhydrin and the reaction can be monitored by sampling of the reaction mixture at consecutive time points. […] A background reaction was also measured in the absence of enzyme. […]
Six TLC plates (silica coated), one for each time point, were prepared and sampling occurred immediately after addition of Telcyta and every 3.5 min thereafter. The reaction was monitored over a total of 17.5 min. […]
Catalytic activity was estimated both by visual observation and by quantitative ImageJ analysis. […]

Cys48 = Cys48 (UniProt position 48, SLKASCLYGQL); settings: cited from earlier work

T1 sequence (A0A8I3QRM6 1-210): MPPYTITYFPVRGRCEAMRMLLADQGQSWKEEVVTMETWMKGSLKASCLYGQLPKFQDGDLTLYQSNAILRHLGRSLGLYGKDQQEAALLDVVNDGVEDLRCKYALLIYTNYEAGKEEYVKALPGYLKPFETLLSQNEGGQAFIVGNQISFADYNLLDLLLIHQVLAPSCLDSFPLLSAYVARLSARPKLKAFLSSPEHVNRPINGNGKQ

Compound | Specific Activity, Dog GST P1-1 (dog GST P1-1 [1]) [µmol/min/mg] | Specific Activity, Human GST P1-1/Ile105 (Human GST P1-1/Ile105) [µmol/min/mg] | other results
O=[N+]([O-])c1ccc(Cl)c([N+](=O)[O-])c1 [1-Chloro-2,4-dinitrobenzene] | 23.0 ± 1.3 | 106 | 
C=CCN=C=S [Allyl isothiocyanate] | 1.94 ± 0.60 | 38 | 
S=C=NCc1ccccc1 [Benzyl isothiocyanate] | 39.0 ± 5.2 | 63 | 
Nc1c(S(=O)(=O)O)cc(Nc2ccc(Nc3nc(Cl)nc(Nc4ccccc4S(=O)(=O)O)n3)c(S(=O)(=O)O)c2)c2c1C(=O)c1ccccc1C2=O [Cibacron Blue] |  |  | IC50 (dog GST P1-1 [2]): 0.043 ± 0.007 µM; Shape of inhibition curve (cooperativity) (dog GST P1-1 [2]; benzyl isothiocyanate as substrate): positive cooperativity
CC(C)(OO)c1ccccc1 [Cumene hydroperoxide] | 0.07 ± 0.01 | 0.03 | 
S=C=NC1CCCCC1 [Cyclohexyl isothiocyanate] | 1.27 ± 0.08 | 11 | 
C=C(CC)C(=O)c1ccc(OCC(=O)O)c(Cl)c1Cl [Ethacrynic acid] | 2.05 ± 0.13 |  | 
S=C=NCCc1ccccc1 [Phenethyl isothiocyanate] | 6.37 ± 1.03 | 60 | 
CCCN=C=S [Propyl isothiocyanate] | 2.55 ± 0.20 | 49 | 
NC(CCC(=O)NC(CS(=O)(=O)CCOP(=O)(N(CCCl)CCCl)N(CCCl)CCCl)C(=O)NC(C(=O)O)c1ccccc1)C(=O)O [Telcyta, γ-L-Glutamyl-α-amino-β-(2-ethyl-N,N,N′,N′-tetrakis(2-chloroethyl)phosphorodiamidate)sulfonylpropionyl-R(−)phenylglycine] |  |  | Fold lower activity per mg of protein of dog GST P1-1 than the human enzyme (dog GST P1-1 [3]): 18 fold
[Cl][Sn]([c]1ccccc1)([c]1ccccc1)[c]1ccccc1 [Triphenyltin chloride] |  |  | IC50 (dog GST P1-1 [2]): 3.11 ± 0.38 µM
CCCCCCC/C=C/C=O [trans-2-Decenal] | 0.111 ± 0.005 |  | 
CCCCCCCCC/C=C/C=O [trans-2-Dodecenal] | 0.046 ± 0.006 |  | 
CCCCCC/C=C/C=O [trans-2-Nonenal] | 0.124 ± 0.005 |  | 
CC/C=C/C=O [trans-2-Pentenal] | 0.100 ± 0.002 |  | 
C[C@]12CCC(=O)CC1=CC[C@@H]1[C@@H]2CC[C@]2(C)C(=O)CC[C@@H]12 [Δ^5-androstene-3,17-dione] | 0.014 ± 0.005 | 0.01 | 
Glutathione transferase P1-1 (GST P1-1, class Pi) (Homo sapiens) |  |  | pKa (Cys48): 4.2
